From US9757477B2, “Imaging brown adipose tissue with curcumin derivatives” (The General Hospital Corporation, priority 2013, dated 2017)

Columns and labels:
interscapular BAT [1] = test: Re-testing of hits with stepwise dissection and NIR imaging; assay type: in vivo, mice
Protocol: Like protein/cell-based screening, hit re-testing experiments were conducted to validate the reliability of this approach. CRANAD-2, -3, LDS 722 and Rhodamine 640 were subjected to re-testing by repeating the above imaging procedure. Images were acquired one hour after probe injection.
Next, stepwise dissection and imaging were performed to track the source of the fluorescence contrast at the interscapular site. Skin and the thin WAT layer that covers BAT were first removed, and then BAT was dissected, and NIR images were captured at each step. […] The signal contribution from BAT (R(BAT)) was roughly estimated using the ratio of fluorescence signals acquired after (F(BAT)) and before (F(intact)) the first step dissection of skin and WAT.

[2] = test system: differentiated 3T3-L1 cells; test: Probe uptake in differentiated 3T3-L1 cells (IVIS and two-photon imaging, competition); assay type: cell-based; conditions: for uptake with triglyceride competition: triglyceride added with probe, two-photon microscopy and IVIS
Protocol: To investigate the facilitated diffusion of CRANAD-2, the time courses of CRANAD-2 uptake in 3T3-L1 cells were compared before and after differentiation. Two-photon imaging for 3T3-L1 cells was performed as follows. Fibroblast 3T3-L1 cells were differentiated following the protocol provided by Zenbio, Inc. (protocol No. ZBM0009.02). Ten microliters of CRANAD-2 (250 μM in DMSO) was added to the differentiated cells (1.0 ml). Cells were imaged after 10 min of incubation. A 940 nm laser was first used to capture an image for CRANAD-2 in 570-620 nm channel (Prairie Two-photon microscope, Middleton, Wis.). Next, the laser was tuned to 750 nm to capture autofluorescence of the cells to outline cell morphology.
For triglyceride competition, stock solutions of CRANAD-2 (250 μM) and triglyceride (5 mM) in DMSO were prepared. Before imaging, 10 μl of the stock solution was added to the cells.
IVIS imaging of 3T3-L1 cells with CRANAD-2 was performed as follows. To a 6-well plate seeded with preadipocytes or differentiated adipocytes, a 10 μL solution of CRANAD-2 (250 μM in DMSO) was added. The plate was subjected to imaging using IVIS imaging system with Ex=605 nm, Em=660 nm before and after addition of CRANAD-2. For triglyceride competition, the same protocol for two-photon imaging was used. The images were acquired at 20 min after addition of CRANAD-2. Studies were performed in triplicate.
The uptake of CRANAD-29 in 3T3-L1 cells before and after differentiation was compared. IVIS imaging of 3T3-L1 cells with CRANAD-29 was performed as follows. To a 6-well plate seeded with preadipocytes or differentiated adipocytes, a 10 μL solution of CRANAD-29 (250 μM in DMSO) was added. The plate was subjected to imaging using IVIS imaging system with Ex=640 nm, Em=700 nm before and after addition of CRANAD-29. For triglyceride competition and Hexarelin inhibition, the similar protocol for CRANAD-2 imaging was used. The final concentration of hexarelin was 12.5 μM, and the images were acquired at 3 hours after addition of CRANAD-29 and triglyceride/Hexarelin. Studies were performed in triplicate.

interscapular BAT [3] = test: Time course and dose optimization of probe signal in BAT area after i.v. injection; assay type: in vivo, mice
Protocol: Next the time course of CRANAD-2 and CRANAD-3 accumulation in BAT area was investigated. […] Similarly, the signal of CRANAD-3 reached the uptake peak around one hour, and then gradually washed out (FIG. 8c-d). Accumulation of CRANAD-2 and -3 in BAT was further confirmed with ex vivo histology of the dissected BAT slices, performed as follows. The dissected BAT was fixed with 4% formalin at 4° C. overnight, and then embedded into OCT. BAT tissue was cut into 7 micron thickness slices, washed with PBS buffer, and co-stained with DAPI (Vectra Shield, Vector Lab, Burlingame, Calif.). Images were acquired with fast exposure to capture the dye signal in the oil droplets. To outline cell membrane cell autofluorescence was captured with long exposure after image of the dye signal from oil droplets was already acquired. To further validate the capacity of CRANAD-29 for BAT labeling, ex vivo histological microscopic imaging with CRANAD-29 was conducted. […] Gold standard H&E staining also provided similar images (FIG. 10a). […] The injection dose of CRANAD-29 was optimized, and the fluorescence signal reached its plateau at 0.4 mg/kg (FIG. 11). In the following studies, 0.1 mg/kg dose was used.

cleared by (interscapular BAT [3]; i.v. injection) [min] | signal detectable until (interscapular BAT [3]; i.v. injection) | time of uptake peak in BAT area after injection (interscapular BAT [3]; i.v. injection) [min] | time at which uptake reached plateau after probe injection (interscapular BAT [3]; mouse, in vivo, iv) | SMILES | R(BAT), signal contribution from BAT, F(BAT)/F(intact) (interscapular BAT [1]; fluorescence after vs before dissection of skin and WAT, roughly estimated) | contrast among the re-tested dyes (interscapular BAT [1]; images one hour after probe injection) | fluorescence signal from BAT (before vs after BAT removal) (interscapular BAT [1]; stepwise dissection) | selectivity for BAT (over WAT) (interscapular BAT [1]; stepwise dissection) | time to uptake plateau ([2]; differentiated 3T3-L1 cells) | uptake within 1 minute, of the maximal ([2]; differentiated 3T3-L1 cells) [%] | uptake with triglyceride competition [2] | F(BAT)/F(intact) ratio compared with CRANAD-2 and -3 (interscapular BAT [1]; stepwise dissection) | reduction of uptake in glutaraldehyde-fixed cells ([2]; differentiated 3T3-L1 cells fixed with glutaraldehyde) [%] | uptake with Hexarelin (CD36 specific ligand) ([2]; hexarelin 12.5 μM, images at 3 hours) | injection dose at which fluorescence signal reached its plateau (interscapular BAT [3]; dose optimization) [mg/kg]
≤ 720 | at least 180 min | 120 |  | CN(C)c1ccc(/C=C/C2=CC(=C/C=C3C=CC(=[N+](C)C)C=C3)/O[B-](F)(F)O2)cc1 [CRANAD-2] | about 0.26 | highest contrast | able to label BAT | low | 15 min | 62 | significant decrease in uptake |  |  |  | 
 |  |  | around 2 h | F[B-]1(F)OC(/C=C/c2cc3c4c(c2)CCCN4CCC3)=CC(/C=C/c2cc3c4c(c2)CCCN4CCC3)=[O+]1 [CRANAD-29] |  |  |  | excellent selectivity | around 90 minute |  | significantly reduced by triglyceride | much higher | 70 | significantly inhibited by Hexarelin | 0.4
